Results published in publication PMC8874984, “Improved Cell-Potent and Selective Peptidomimetic Inhibitors of Protein N-Terminal Methyltransferase 1” (Molecules, 2022).
Like-named read-outs stand apart in the source and are kept apart here.

Legend:
[1] = tested on: me3-RCC1; design: method as in PMID 33738076; conditions: cited from earlier work
[2] = molecular target: T1, NTMT1 (Homo sapiens, UniProt Q9BV86); conditions: cited from earlier work
T1 construct: made in house
T1 sequence (Q9BV86 1-223): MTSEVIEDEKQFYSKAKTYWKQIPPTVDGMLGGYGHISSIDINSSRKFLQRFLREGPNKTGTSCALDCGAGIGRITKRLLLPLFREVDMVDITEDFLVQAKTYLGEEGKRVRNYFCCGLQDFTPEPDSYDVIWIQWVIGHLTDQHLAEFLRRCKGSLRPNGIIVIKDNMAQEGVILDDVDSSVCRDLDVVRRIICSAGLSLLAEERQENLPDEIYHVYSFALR

[3] = molecular target: T1, NTMT1; assay: SAHH-coupled fluorescence assay of NTMT1 inhibition; format: biochemical; conditions: for Expt. ΔGbind ± σ: estimated from the IC50 values in Table 1; for IC50/IC50 (DC541): ratio of NTMT1 IC50 to that of DC541
[4] = Cytotoxicity by alamarBlue assay in HCT116 cells; conditions: human, GI50, HCT116 cells
Procedure: (§1) Cell viability assay. HCT116 cells were seeded as 5,000 cells/well on 96-well plates in the
(§2) presence of 1x PBS or DC541 at different concentrations for 24, 48, or 72 hours. Cell viability
(§3) was assessed using 0.2 mg/ml resazurin solutions prepared from resazurin sodium salt (Acros
(§4) OrganicsTM, AC418900050) dissolved in sterile 1 x PBS. Then, the cells were incubated with
(§5) 10 µl resazurin solution (10% of cell culture volume) for four hours at 37 °C. The fluorescence
(§6) Cell viability was calculated as 100% × (fluorescence of treated cells – fluorescence of
(§7) background controls) / (fluorescence of 1x PBS controls – fluorescence of background

[5] = tested on: NTMT1 knockout HCT116 cells; assay: Cytotoxicity by alamarBlue assay in NTMT1 knockout HCT116 cells; format: cell-based, human; conditions: wild-type and NTMT1 knockout HCT116 cells
[6] = in vitro; conditions: PAMPA
[7] = tested on: cellular α-N-terminal methylation level in HCT116 cells; assay: Cellular N-terminal methylation level, Western blot with anti-me3-SPK antibody; format: cell-based; conditions: Homo sapiens, HCT-116, cellular N-terminal methylation inhibition, n = 2
Procedure: Next, we investigated the effects of all peptidomimetic inhibitors with GI50 > 100 µM and IC50 < 1 µM on the cellular α-N-terminal methylation level in HCT116 cells (Table 2). Then, we examined the top three cell-potent peptidomimetic inhibitors 1d–f on the dose-response of inhibition of cellular N-terminal methylation levels. […] As the biochemical IC50 value of GD562 was about three-fold higher than DC541, we proposed that the improved cellular inhibition of GD562 may be attributed to its increased permeability with higher cLogP than DC541.
Figure 5 Inhibition of cellular N-terminal methylation by peptidomimetic inhibitors in HCT116 cells. Representative Western blot results of the effects of GD562 (A), GD564 (B), and GD573 (C) on the cellular methylation level. Image quantification was performed using ImageJ software (NIH). […] All experiments were performed in duplicate (n = 2). […]
Cellular N-methylation level.
The gel was transferred to a
system. Image quantification was done using ImageJ software (NIH). All bands were compared
OrganicsTM, AC418900050) dissolved in sterile 1 x PBS. […]

[8] = tested on: me3-RCC1; assay: Cellular me3-RCC1 level in HCT116 cells; format: cell-based, human
[9] = molecular target: T2, SETD7 (Homo sapiens, UniProt Q8WTS6); assay: In-house selectivity study, fluorescence assay: SETD7; format: biochemical; conditions: read-out: inhibition of enzyme activity
T2 construct: made in house
T2 sequence (Q8WTS6 1-366): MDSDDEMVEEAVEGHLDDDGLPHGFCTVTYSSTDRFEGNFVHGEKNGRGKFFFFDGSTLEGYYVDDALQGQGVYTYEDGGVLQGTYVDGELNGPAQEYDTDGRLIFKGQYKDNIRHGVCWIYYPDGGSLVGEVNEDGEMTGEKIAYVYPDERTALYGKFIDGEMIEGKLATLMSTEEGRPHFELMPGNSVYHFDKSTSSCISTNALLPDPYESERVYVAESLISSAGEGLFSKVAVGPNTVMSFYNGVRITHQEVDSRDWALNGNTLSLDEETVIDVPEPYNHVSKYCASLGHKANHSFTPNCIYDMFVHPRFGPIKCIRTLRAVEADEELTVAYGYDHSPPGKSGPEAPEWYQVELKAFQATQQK

[10] = molecular target: T3, G9a (Homo sapiens, UniProt Q96KQ7); assay: In-house selectivity study, fluorescence assay: G9a; format: biochemical; conditions: read-out: inhibition of enzyme activity
T3 sequence (Q96KQ7 1-1210): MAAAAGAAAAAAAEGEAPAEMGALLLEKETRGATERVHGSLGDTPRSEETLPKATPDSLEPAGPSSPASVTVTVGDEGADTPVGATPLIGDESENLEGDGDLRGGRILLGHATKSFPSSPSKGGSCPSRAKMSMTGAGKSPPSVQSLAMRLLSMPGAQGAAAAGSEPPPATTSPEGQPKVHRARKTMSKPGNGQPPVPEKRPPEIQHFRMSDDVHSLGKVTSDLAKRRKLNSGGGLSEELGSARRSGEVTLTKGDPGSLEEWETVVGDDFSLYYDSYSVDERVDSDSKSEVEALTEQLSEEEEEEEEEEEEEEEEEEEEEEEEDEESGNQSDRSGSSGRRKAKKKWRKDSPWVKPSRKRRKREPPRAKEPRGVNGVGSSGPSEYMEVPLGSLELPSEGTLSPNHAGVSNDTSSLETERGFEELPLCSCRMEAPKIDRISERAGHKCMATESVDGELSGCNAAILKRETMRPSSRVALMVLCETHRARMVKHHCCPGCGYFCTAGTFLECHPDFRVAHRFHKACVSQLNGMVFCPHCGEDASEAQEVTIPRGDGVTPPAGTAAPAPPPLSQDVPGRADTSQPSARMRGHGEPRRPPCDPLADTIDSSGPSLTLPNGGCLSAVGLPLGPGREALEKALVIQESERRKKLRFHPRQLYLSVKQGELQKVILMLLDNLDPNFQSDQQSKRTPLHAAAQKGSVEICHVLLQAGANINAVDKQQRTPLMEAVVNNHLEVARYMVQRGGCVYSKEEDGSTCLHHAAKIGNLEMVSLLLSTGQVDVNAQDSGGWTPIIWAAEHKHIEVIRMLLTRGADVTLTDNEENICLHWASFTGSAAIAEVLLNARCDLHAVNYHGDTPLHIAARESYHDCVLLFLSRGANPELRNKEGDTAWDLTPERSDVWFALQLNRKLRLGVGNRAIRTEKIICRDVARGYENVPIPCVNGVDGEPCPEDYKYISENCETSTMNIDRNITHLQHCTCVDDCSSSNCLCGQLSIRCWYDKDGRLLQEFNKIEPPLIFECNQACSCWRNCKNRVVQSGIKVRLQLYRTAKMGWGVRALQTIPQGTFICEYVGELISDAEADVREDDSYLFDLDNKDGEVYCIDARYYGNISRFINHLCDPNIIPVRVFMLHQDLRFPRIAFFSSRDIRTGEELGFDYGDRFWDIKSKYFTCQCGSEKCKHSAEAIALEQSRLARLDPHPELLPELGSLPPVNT

[11] = molecular target: T4, PRMT1 (Homo sapiens, UniProt Q99873); assay: In-house selectivity study, fluorescence assay: PRMT1; format: biochemical; conditions: read-out: inhibition of enzyme activity
T4 construct: made in house
T4 sequence (Q99873 whole entry, species assumed): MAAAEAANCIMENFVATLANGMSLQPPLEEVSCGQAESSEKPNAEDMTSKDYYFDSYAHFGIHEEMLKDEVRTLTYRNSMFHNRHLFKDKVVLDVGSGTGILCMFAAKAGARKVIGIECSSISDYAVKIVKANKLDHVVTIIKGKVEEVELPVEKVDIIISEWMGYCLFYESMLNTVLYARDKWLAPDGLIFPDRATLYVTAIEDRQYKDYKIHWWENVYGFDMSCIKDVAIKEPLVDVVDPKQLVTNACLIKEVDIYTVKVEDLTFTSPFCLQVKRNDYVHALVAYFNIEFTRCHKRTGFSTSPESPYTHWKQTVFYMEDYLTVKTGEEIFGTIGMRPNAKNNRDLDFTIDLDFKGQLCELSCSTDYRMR

[12] = molecular target: TbPRMT7 (Trypanosoma brucei brucei, UniProt Q582G4); assay: biochemical; conditions: read-out: inhibition of enzyme activity
TbPRMT7, sequence (Q582G4 whole entry): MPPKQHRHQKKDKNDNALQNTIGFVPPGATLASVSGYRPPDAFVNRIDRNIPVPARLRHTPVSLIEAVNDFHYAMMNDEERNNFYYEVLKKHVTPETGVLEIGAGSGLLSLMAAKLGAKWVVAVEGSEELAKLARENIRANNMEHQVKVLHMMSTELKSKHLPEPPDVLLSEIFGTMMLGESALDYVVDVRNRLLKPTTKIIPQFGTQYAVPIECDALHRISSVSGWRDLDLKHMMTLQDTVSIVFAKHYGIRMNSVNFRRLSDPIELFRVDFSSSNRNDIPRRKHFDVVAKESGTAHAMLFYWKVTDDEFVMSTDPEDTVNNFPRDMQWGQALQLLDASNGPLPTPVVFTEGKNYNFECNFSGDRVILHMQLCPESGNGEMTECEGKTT

[13] = molecular target: T5, NNMT (Homo sapiens, UniProt P40261); assay: In-house selectivity study, fluorescence assay: NNMT; format: biochemical; conditions: read-out: inhibition of enzyme activity
T5 construct: made in house
T5 sequence (P40261 1-264): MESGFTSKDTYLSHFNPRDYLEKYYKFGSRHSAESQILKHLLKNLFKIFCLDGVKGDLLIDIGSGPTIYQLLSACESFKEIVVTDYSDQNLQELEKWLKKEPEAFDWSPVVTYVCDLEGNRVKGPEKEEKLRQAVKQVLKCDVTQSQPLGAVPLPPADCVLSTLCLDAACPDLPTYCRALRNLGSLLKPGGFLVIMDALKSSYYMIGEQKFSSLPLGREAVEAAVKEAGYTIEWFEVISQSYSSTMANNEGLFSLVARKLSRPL

[14] = molecular target: SAHH (Homo sapiens, UniProt P23526); assay: In-house selectivity study, fluorescence assay: coupling enzyme SAHH; format: biochemical; conditions: n = 2
SAHH, sequence (P23526 whole entry, species assumed): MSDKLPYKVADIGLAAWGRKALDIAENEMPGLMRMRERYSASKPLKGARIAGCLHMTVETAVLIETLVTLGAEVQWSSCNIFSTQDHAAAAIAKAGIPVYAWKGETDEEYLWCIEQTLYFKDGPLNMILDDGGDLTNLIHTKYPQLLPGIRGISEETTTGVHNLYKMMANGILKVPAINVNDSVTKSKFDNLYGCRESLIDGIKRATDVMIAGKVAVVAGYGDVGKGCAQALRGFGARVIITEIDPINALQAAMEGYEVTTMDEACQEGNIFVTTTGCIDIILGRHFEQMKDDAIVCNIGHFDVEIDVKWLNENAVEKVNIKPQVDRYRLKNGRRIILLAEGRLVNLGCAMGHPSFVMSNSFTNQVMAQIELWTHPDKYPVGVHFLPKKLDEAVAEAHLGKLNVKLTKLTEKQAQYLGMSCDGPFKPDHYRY
Procedure: Figure 6 In-house selectivity studies of GD562. The compound was tested at 100, 30, and 10 µM (n = 2). Both SAM and substrate are at their Km values.

[15] = tested on: me3-SET; assay: Cellular me3-SET level in HCT116 cells; format: cell-based, human
[16] = in vitro; conditions: human
Procedure: as §1, §2, §3, §4, §5, §6, §7

[17] = Parallel Artificial Membrane Permeability Assay (PAMPA)
[18] = tested on: HCT116 cells; assay: Cytotoxicity by alamarBlue assay in HCT116 cells
Procedure: as §1, §2, §3, §4, §5, §6, §7

[19] = tested on: me3-SET; design: method as in PMID 33738076; conditions: even at 300 µM in HCT116 cells; cited from earlier work
[20] = SAHH-coupled fluorescence assay, n = 2, mean ± SD, read-out: IC50

Compound | IC50 [3, 20] [µM] | Expt. ΔGbind ± σ [3] [kcal/mol] | IC50/IC50 (DC541) [3] | GI50 [4] [µM] | Papp [6] [×10⁻⁶ cm/s] | IC50 [7] [µM] | other results
NCCCC[C@H](NC(=O)[C@@H]1CCCN1C(=O)Cc1ccc(O)cc1)C(=O)N[C@@H](CCCN=C(N)N)C(N)=O [BM30] |  |  |  |  |  |  | IC50 ([1]; Figure 1, previously reported inhibitors, read-out: Celluar IC50): > 1000 µM; selectivity for NTMT1/2 among a panel of 41 methyltransferases [2]: over 100 fold; IC50 ([2]; previously reported inhibitor): 0.89 ± 0.1 µM
NCCCCC(NC(=O)C1CCCN1C(=O)Cc1cccc2ccccc12)C(=O)Nc1cccc(Br)c1 (stereo not shown) [Compound 1a] | 0.17 ± 0.008 | -9.24 ± 0.04 | 0.50 | < 70 |  |  | GI50 in NTMT1 knockout versus wild-type HCT116 cells [5]: comparable GI50 value
NCCCCC(NC(=O)C1CCCN1C(=O)Cc1cccc2ccccc12)C(=O)Nc1ccc(Br)cc1 (stereo not shown) [Compound 1b] | 0.18 ± 0.007 | -9.20 ± 0.03 | 0.53 | < 70 |  |  | 
NCCCCC(NC(=O)C1CCCN1C(=O)Cc1cccc2ccccc12)C(=O)NCc1ccccc1 (stereo not shown) [Compound 1c] | 0.91 ± 0.03 | -8.24 ± 0.03 | 2.7 | > 300 | 0.24 ± 0.06 | < 300 | 
NCCCCC(NC(=O)C1CCCN1C(=O)Cc1cccc2ccccc12)C(=O)NCCc1ccccc1 (stereo not shown) [Compound 1d] |  |  |  | > 300 | 0.26 ± 0.06 | ~50 | increase in cellular inhibition activity on me3-RCC1 compared to DC541 [8]: over 2 fold; IC50 ([8]; Homo sapiens, HCT-116): ~50 µM; inhibition at 100 µM [9]: ≤ 50%; inhibition at 100 µM [10]: ≤ 50%; inhibition at 100 µM [11]: ≤ 50%; inhibition at 100 µM [12]: ≤ 50%; inhibition at 100 µM [13]: ≤ 50%; inhibition at 100 µM [14]: ≤ 50%; increase of inhibitory activity for the SET protein compared with DC541 [15]: over 6 fold; IC50 ([15]; Homo sapiens, HCT-116): ~50 µM
NCCCCC(NC(=O)C1CCCN1C(=O)Cc1cccc2ccccc12)C(=O)NCCCc1ccccc1 (stereo not shown) [Compound 1e] |  | -8.44 ± 0.01 | 1.9 |  |  | ~100 | GI50 [16]: > 300 µM; IC50 [3]: 0.65 ± 0.01 µM; Papp [17]: 0.17 ± 0.08 ×10⁻⁶ cm/s
NCCCCC(NC(=O)C1CCCN1C(=O)Cc1cccc2ccccc12)C(=O)NCC1CCCCC1 (stereo not shown) [Compound 1f] | 0.94 ± 0.03 | -8.22 ± 0.03 | 2.8 | > 300 | 0.47 ± 0.07 | ~100 | 
NCCCC[C@H](NC(=O)[C@@H]1CCCN1C(=O)Cc1cccc2ccccc12)C(=O)NCc1cccc(Br)c1 [Compound 1g] | 0.58 ± 0.03 | -8.51 ± 0.04 | 1.7 | ~130 | 0.6 ± 0.1 | < 300 | GI50 [18]: 128 ± 20 µM
NCCCC[C@H](NC(=O)[C@@H]1CCCN1C(=O)Cc1cccc2ccccc12)C(=O)NCc1ccc(Br)cc1 [Compound 1h] | 0.82 ± 0.07 | -8.30 ± 0.07 | 2.4 | ~130 | 0.9 ± 0.2 | < 300 | GI50 [18]: 135 ± 23 µM
CN(CCc1ccccc1)C(=O)C(CCCCN)NC(=O)C1CCCN1C(=O)Cc1cccc2ccccc12 (stereo not shown) [Compound 1i] | 1.7 ± 0.07 |  | 5.0 |  |  |  | 
NCCCCC(NC(=O)C1CCCN1C(=O)Cc1cccc2ccccc12)C(=O)NCCc1ccc(-c2ccccc2)cc1 (stereo not shown) [Compound 1j] |  |  | 7.4 |  | 0.9 ± 0.3 |  | 
NCCCCC(NC(=O)C1CCCN1C(=O)Cc1cccc2ccccc12)C(=O)NCCc1cccc(-c2ccccc2)c1 (stereo not shown) [Compound 1k] |  |  | 2.0 | < 70 | 1.3 ± 0.4 |  | GI50 [18]: 65 ± 7 µM
NCCCCC(NC(=O)C1CCCN1C(=O)Cc1cccc2ccccc12)C(=O)Nc1ccccc1C(N)=O (stereo not shown) [DC541, reference compound] | 0.34 ± 0.03 | -8.82 ± 0.07 | 1.0 |  |  |  | IC50 ([1]; HCT116 cells, read-out: cellular IC50 on the me3-RCC1 level): ~100 µM; inhibition of me3-SET level [19]: did not show any inhibition
